Measured values reported in patent US20040009973A1, “Novel potassium channels modulators” (4SC AG, priority 2002, published 2004).

Target: T1, BK potassium channel, cloned hSlo (α-hSlo and β-bSlo) in CHO cells (Homo sapiens, UniProt Q12791)
T1 construct: expressed in transfected cells; host or cells: CHO cells, permanently transfected
Assay: Em-Assay: membrane potential with voltage sensitive dye DiBAC(4)3, fluorescence plate reader
Assay type: cell-based
Conditions: compound 50 μM; NS004 25 or 50 μM; hSlo transfected CHO cells; change in DiBAC(4)3 fluorescence intensity
Source text: The large conductance, voltage-dependent and Ca^2+-activated potassium channel BK is a potassium selective ion channel and belongs to the subfamily of KCa channels. Four BK alpha-subunits form a functional channel that can be regulated by intracellular Ca^2+ concentration, membrane voltage, and other mechanisms like phosphorylation states or beta subunits. To test the biological activity of the compounds, we applied two different techniques, a fluorescence based assay using a voltage sensitive dye (Em-Assay) as well as exploiting electrophysiological methods.
CHO cells permanently transfected with cloned hSlo (α-hSlo and β-bSlo), yielding typical BK potassium currents (Zhou et al., Pflügers Arch., 436: 725-734 (1998), were used for the evaluation of compound activity. Activation or inhibition of BK channels in these cells leads to a change of the electrochemical gradient causing a hyperpolarized or depolarised membrane potential, respectively.
To determine changes in the membrane potential of the cells we used the voltage sensitive dye DiBAC(4)3 (Molecular Probes) in a kinetic assay system using a fluorescent plate reader (Manning and Sontheimer, J. Neurosci, Meth., 91: 73-81 (1999). The anionic bis-oxonol DiBAC(4)3 is a voltage sensitive dye which partitions from the extracellular environment into the cell where it reversibly binds to intracellular proteins, a kinetic process depending on the membrane potential of the cell. At depolarised potentials (i.e. at a reduced K^+ efflux due to blocked K^+ channels) the dye accumulates in the cell leading to an increased fluorescence intensity, due to its increased fluorescence if bound to cellular proteins. At hyperpolarized potentials (i.e. at an increased K^+ efflux due to the opening of K^+ channels), the dye partitions out of the cell causing a decreased fluorescence intensity.
hSlo transfected CHO cells where maintained in DMEM supplemented with 10% FCS, 250 μg/ml Geneticin, 100 μg/ml Hygromycin, 1×HT-Supplement, and 1×Non-essential Amino Acids and cultured in a humidified CO2 incubator. After trypsination, cells where plated with a density of 5×10^4 cells per well on a clear 96-well plate and incubated for 24 h. Cells where washed once with PBS, once with PBS containing 20 mM HEPES (adjusted to pH 7.4 with NaOH) and 2 μM DIBAC(4)3 (DPBS-DiBAC solution). 180 μl of the dPBS-DiBAC solution was then added to the cells and the plate incubated for 30-60 min at 37° C. During this time the dye could partition into the cells and reach a certain steady-state distribution, depending on the resting membrane potential. Test and reference compounds were stored as DMSO stock solutions and diluted in dPBS-DiBAC solution to the desired concentration.
Fluorescence intensity (Ex.: 485 nm/Em.: 520 nm) of each well was detected in the plate reader (Fluostar, BMG) every 60 seconds. After recording the baseline fluorescence for 7 minutes, 20 μl test—and reference compounds were added and the fluorescence intensity was detected for additional 15 minutes. Background was subtracted, data values were normalized and expressed as a change in fluorescence intensity against time. The change in fluorescence intensity caused by the test compounds was evaluated, compared to the effect of the reference compound NS004, and the ratio was determined (see Table I).

T1 sequence (Q12791 1-1178 isoform Q12791-5): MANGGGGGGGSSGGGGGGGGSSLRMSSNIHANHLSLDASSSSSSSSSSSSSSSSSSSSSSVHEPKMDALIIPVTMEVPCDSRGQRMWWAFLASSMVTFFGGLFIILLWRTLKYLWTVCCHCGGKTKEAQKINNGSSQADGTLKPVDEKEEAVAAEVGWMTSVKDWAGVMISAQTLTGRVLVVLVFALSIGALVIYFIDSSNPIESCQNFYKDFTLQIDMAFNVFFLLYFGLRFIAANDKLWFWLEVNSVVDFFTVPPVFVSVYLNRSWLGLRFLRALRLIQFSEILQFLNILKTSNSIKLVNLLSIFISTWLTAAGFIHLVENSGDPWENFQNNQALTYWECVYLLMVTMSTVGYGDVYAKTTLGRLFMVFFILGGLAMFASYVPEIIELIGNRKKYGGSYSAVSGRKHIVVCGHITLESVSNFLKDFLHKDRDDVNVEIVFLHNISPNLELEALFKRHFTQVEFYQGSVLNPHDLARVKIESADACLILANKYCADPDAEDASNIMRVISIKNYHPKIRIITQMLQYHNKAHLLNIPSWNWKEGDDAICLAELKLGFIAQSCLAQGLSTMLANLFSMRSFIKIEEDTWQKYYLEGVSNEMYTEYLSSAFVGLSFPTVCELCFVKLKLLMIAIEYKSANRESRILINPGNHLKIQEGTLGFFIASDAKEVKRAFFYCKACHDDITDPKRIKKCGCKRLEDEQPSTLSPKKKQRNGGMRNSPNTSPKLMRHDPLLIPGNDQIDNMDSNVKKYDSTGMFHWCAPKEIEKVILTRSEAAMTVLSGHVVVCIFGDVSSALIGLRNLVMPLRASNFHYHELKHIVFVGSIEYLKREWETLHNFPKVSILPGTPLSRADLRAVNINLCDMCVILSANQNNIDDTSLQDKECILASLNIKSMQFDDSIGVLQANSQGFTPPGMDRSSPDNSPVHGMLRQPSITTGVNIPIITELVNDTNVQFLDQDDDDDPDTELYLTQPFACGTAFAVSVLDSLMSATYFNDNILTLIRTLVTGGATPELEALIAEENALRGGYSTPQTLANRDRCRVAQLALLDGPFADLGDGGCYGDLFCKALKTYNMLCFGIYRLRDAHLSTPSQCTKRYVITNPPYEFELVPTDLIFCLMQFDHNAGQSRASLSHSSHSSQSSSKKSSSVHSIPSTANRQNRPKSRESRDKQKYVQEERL
T1 sequence (Q28067 2-191 partner limits assumed): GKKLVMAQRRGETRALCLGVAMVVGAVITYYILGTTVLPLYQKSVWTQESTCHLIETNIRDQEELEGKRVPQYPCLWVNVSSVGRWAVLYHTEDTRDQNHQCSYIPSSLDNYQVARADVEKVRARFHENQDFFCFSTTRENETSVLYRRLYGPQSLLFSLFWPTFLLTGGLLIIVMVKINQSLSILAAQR

Compound | Em effect: ratio of the compound effect compared to the maximal effect of NS004
Cc1cc(NCc2cccc(F)c2)ccc1NCc1cccc(F)c1 [Compound 103, N^1,N^4-bis-(3-fluorobenzyl)-2-methylbenzene-1,4-diamnine] | + (0-1 = +)
O=[N+]([O-])c1ccc(CNc2ccc(NCc3ccc(Br)cc3)cc2Cl)cc1 [Compound 23] | + (0-1 = +)
Fc1cc(F)cc(CNc2cc(NCc3csc4ccc(Cl)cc34)cc(C(F)(F)F)c2)c1 [Compound 80] | + (0-1 = +)
COc1cccc(CNc2cccc(NCc3ccc(F)cc3Cl)c2)c1 [Compound 67] | + (0-1 = +)
Fc1ccc(CNc2cccc(NCc3ccc(F)cc3)c2)cc1 [Compound 26, N,N′-bis-(4-fluorobenzyl)-benzene-1,3-diamine] | + (0-1 = +)
c1ccc(CNc2cccc(NCc3ccccc3)c2)cc1 [Compound 9, N,N′-Dibenzylbenzene-1,3-diamine] | + (0-1 = +)
O=[N+]([O-])c1ccc(CNc2cc(NCc3ccc4ccccc4c3)cc(C(F)(F)F)c2)cc1 [Compound 8] | + (0-1 = +)
Clc1ccccc1CNc1ccc(NCc2ccccc2Cl)cc1 [Compound 95, N,N′-bis-(2-chlorobenzyl)-benzene-1,4-diamine] | + (0-1 = +)
Cc1cc(NCc2c(F)cccc2Cl)ccc1NCc1c(F)cccc1Cl [Compound 93] | + (0-1 = +)
Fc1ccc(CNc2cccc(NCc3ccc(-c4csnn4)cc3)c2)c(F)c1 [Compound 52, N-(2,4-difluorobenzyl)-N′-(4-[1,2,3]thiadiazol-4-yl-benzyl)-benzene-1,3-diamine] | + (0-1 = +)
CS(=O)(=O)c1ccc(CNc2cccc(NCc3cc(F)cc(F)c3)c2)cc1 [Compound 51, N-(3,5-difluorobenzyl)-N′-(4-methanlesulfonylbenzyl)-benzene-1,3-diamine] | + (0-1 = +)
FC(F)(F)c1ccccc1CNc1cccc(NCc2csc3ccc(Cl)cc23)c1 [Compound 62] | + (0-1 = +)
Cc1cc(NCc2cccc(Cl)c2)ccc1NCc1cccc(Cl)c1 [Compound 17] | + (0-1 = +)
O=[N+]([O-])c1ccc(CNc2cccc(NCc3ccc([N+](=O)[O-])cc3)c2)cc1 [Compound 10] | + (0-1 = +)
COc1cccc(CNc2cccc(NCc3cccc(OC)c3)c2)c1 [Compound 33] | + (0-1 = +)
O=[N+]([O-])c1ccc(CNc2cccc(NCc3ccc(F)cc3F)c2)o1 [Compound 54, N-(2,4-difluorobenzyl)-N′-(5-nitrofuran-2-ylmethyl)-benzene1,3-diamine] | + (0-1 = +)
COc1cccc(CNc2cccc(NCc3csc4ccc(Cl)cc34)c2)c1 [Compound 56, N-(5-chlorobenzo[b]thiophen-3-ylmethyl)-N′-(3-methoxybenzyl)-benzene-1,3diamine] | + (0-1 = +)
CS(=O)(=O)c1ccc(CNc2cccc(NCc3ccc(F)cc3Cl)c2)cc1 [Compound 65, N-(2-chloro-4-fluorobenzyl)-N′-(4-methanesulfonylbenzyl)-benzene-1,3-diamine] | + (0-1 = +)
Fc1ccc(CNc2cccc(NCc3cccc(Cl)c3)c2)c(Cl)c1 [Compound 66] | + (0-1 = +)

Compound | Em effect: ratio of the compound effect compared to the maximal effect of NS004
CC(C)(C)c1ccc(CNc2cc(NCc3csc4ccc(Cl)cc34)cc(C(F)(F)F)c2)cc1 [Compound 78] | + (0-1 = +)
CC(C)(C)c1ccc(CNc2cccc(NCc3ccc(S(C)(=O)=O)cc3)c2)cc1 [Compound 43, N-(4-tert-butylbenzyl)-N′-(4-methanesulfonylbenzyl)-benzene-1,3-diamine] | + (0-1 = +)
Cc1cc(NCc2ccc(F)cc2F)ccc1NCc1ccc(F)cc1F [Compound 102, N^1,N^4-bis-(2,4-difluorobenzyl)-2-methylbenzene-1,4-diamine] | + (0-1 = +)
Fc1ccc(CNc2cccc(NCc3cccc(Cl)c3)c2)c(F)c1 [Compound 55, N-(3-chlorobenzyl)-N′-(2,4-difluorobenzyl)-benzene-1,3-diamine] | + (0-1 = +)
CC(C)(C)c1ccc(CNc2cc(NCc3ccc(C(C)(C)C)cc3)cc(C(F)(F)F)c2)cc1 [Compound 77, N,N′-bis-(4-tert-butylbenzyl)-5-trifluoromethylbenzene-1,3-diamine] | + (0-1 = +)
Clc1cccc(CNc2ccc(NCc3ccc(Br)cc3)c(Cl)c2)c1 [Compound 21, N^1-(4-Bromobenzyl)-2-chloro-N^4-(3-chlorobenzyl)-benzene-1,4-diamine] | + (0-1 = +)
CC(C)(C)c1ccc(CNc2cccc(NCc3csc4ccc(Cl)cc34)c2)cc1 [Compound 40] | + (0-1 = +)
Fc1cccc(Cl)c1CNc1ccc(NCc2c(F)cccc2Cl)c(Cl)c1 [Compound 94] | + (0-1 = +)
FC(F)(F)c1ccccc1CNc1ccc(NCc2ccccc2C(F)(F)F)c(Cl)c1 [Compound 104, 2-chloro-N^1,N^4-bis-(2-trifluoromethylbenzyl)-benzene-1,4-diamine] | + (0-1 = +)
Clc1cccc(CNc2ccc(NCc3ccc4ccccc4c3)c(Cl)c2)c1 [Compound 22] | + (0-1 = +)
CC(C)(C)c1ccc(CNc2cc(NCc3ccc(-c4csnn4)cc3)cc(C(F)(F)F)c2)cc1 [Compound 79, N-(4-tert-butylbenzyl)-N′-(4-[1,2,3]thiadiazol-4-yl-benzyl)-5-tri-fluoromethylbenzene-1,3-diamine] | + (0-1 = +)
CS(=O)(=O)c1ccc(CNc2cccc(NCc3ccccc3C(F)(F)F)c2)cc1 [Compound 63, N-(4-methanesulfonylbenzyl)-N′-(2-tri-fluoromethylbenzyl)-benzene-1,3-diamine] | + (0-1 = +)
Cc1cc(NCc2ccc(Br)cc2)ccc1NCc1ccc(Br)cc1 [Compound 18] | + (0-1 = +)
CS(=O)(=O)c1ccc(CNc2cccc(NCc3cccc(F)c3)c2)cc1 [Compound 45] | + (0-1 = +)
FC(F)(F)c1ccc(CNc2cc(NCc3ccc(C(F)(F)F)cc3)cc(C(F)(F)F)c2)cc1 [Compound 70, 5-trifloromethyl-N,N′-bis-(4-trifluoromethylbenzyl)-benzene-1,3-diamine] | + (0-1 = +)
Fc1cccc(CNc2cccc(NCc3ccc(-c4csnn4)cc3)c2)c1 [Compound 44, N-(3-fluoro-benzyl)-N′-(4-[1,2,3]thiadiazol-4-yl-benzyl)-benzene-1,3-diamine] | + (0-1 = +)
N#Cc1ccccc1-c1ccc(CNc2cc(NCc3ccc(-c4ccccc4C#N)cc3)cc(C(F)(F)F)c2)cc1 [Compound 73] | + (0-1 = +)
Fc1cc(F)cc(CNc2cccc(NCc3cc(F)cc(F)c3)c2)c1 [Compound 27, N,N′-bis-(3,5-difluorobenzyl)-benzene-1,3-diamine] | ++ (>1-1.5 = ++)
Fc1cc(F)cc(CNc2ccc(NCc3cc(F)cc(F)c3)cc2)c1 [Compound 98, N,N′-bis-(3,5-difluorobenzyl)-benzene-1,4-diamine] | + (0-1 = +)
